In general, pIC50 refers to the IC50 on a negative log10 scale, so that one unit is a factor of ten.

pIC50: −log10 of the molar value. Starred links: 1 amine or outer side, 2 acyl side, 3 side chain; linkers in the order of their positions; H or OH if unused. Positions of bridges follow the written chain, without caps; N, C: chain ends. Non-standard residues stand in square brackets, D forms with d. Residues, ends and D or L forms follow the SMILES beside them. Trp(5-F) = N[C@@H](Cc1c[nH]c2ccc(F)cc12)C(=O)O; Trp(7-aza) = N[C@@H](Cc1c[nH]c2ncccc12)C(=O)O; mXylylene = c1cc(C[*:1])cc(C[*:2])c1; Phg = N[C@H](C(=O)O)c1ccccc1; Tle = CC(C)(C)[C@H](N)C(=O)O; NMeS = CN[C@@H](CO)C(=O)O; hCys = N[C@@H](CCS)C(=O)O; Nva = CCC[C@H](N)C(=O)O

This assay concerns the target C5 (Homo sapiens, UniProt P01031). As to the kind of experiment: Human hemolysis assay (RBC lysis assay using complete human sera). The assay is classed as cell-based. Details: with complete human sera (Complement Technology, Tyler Tex.) and polypeptides; tissue Complement Technology, Tyler Tex; host or cells: complete human serum.
[1] abbreviates: inhibition of lysis of antibody-sensitized sheep erythrocytes, complete human sera.

Sequence of C5 (P01031 19-1676): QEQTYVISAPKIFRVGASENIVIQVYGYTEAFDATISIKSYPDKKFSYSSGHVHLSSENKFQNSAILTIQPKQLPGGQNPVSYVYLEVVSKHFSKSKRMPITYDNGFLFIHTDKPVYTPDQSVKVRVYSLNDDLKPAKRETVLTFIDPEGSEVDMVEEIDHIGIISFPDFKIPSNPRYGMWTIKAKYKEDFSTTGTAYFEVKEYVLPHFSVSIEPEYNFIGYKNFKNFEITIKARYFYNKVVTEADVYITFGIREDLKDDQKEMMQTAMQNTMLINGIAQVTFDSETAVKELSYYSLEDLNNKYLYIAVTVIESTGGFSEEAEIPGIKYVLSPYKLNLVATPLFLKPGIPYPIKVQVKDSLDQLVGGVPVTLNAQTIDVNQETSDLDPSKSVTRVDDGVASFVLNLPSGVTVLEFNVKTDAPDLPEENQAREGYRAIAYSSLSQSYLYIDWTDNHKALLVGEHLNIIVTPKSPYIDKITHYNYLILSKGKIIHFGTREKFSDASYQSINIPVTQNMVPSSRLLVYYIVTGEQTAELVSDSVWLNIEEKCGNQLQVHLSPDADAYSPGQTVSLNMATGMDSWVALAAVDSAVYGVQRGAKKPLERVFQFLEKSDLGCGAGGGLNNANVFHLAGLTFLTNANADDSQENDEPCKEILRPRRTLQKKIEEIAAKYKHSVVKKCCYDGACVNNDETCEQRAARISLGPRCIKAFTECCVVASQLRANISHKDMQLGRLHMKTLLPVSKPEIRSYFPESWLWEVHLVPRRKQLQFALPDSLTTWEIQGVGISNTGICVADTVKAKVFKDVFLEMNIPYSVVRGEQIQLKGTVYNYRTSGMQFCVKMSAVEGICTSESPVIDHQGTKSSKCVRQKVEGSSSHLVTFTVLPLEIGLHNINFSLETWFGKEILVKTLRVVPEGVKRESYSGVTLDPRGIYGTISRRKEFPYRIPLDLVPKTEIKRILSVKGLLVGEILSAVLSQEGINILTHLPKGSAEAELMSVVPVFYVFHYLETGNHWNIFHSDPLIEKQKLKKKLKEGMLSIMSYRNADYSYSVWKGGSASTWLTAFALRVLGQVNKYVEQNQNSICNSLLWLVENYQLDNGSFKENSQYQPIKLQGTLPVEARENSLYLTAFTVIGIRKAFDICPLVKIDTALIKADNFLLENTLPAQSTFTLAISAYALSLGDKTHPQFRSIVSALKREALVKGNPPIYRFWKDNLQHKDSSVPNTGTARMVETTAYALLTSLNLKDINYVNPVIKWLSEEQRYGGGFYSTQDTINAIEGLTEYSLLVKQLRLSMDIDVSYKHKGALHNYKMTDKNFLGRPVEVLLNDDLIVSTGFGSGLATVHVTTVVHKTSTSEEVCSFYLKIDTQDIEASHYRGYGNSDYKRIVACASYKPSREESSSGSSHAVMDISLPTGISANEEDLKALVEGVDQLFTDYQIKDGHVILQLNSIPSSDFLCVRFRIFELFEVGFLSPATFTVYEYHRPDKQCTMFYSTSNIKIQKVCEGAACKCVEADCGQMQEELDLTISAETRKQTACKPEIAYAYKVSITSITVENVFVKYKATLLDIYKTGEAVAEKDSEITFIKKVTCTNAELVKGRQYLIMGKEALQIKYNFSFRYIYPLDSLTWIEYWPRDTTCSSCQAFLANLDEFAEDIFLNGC

Consider `CCC[C@H](NC(=O)[C@@H]1CSCc2cccc(c2)CSC[C@H](NC(=O)[C@H](CCC)NC(C)=O)C(=O)N[C@@H](c2ccccc2)C(=O)N[C@@H]([C@@H](C)O)C(=O)N[C@@H](Cc2c[nH]c3ncccc23)C(=O)N[C@@H](CCC(=O)O)C(=O)N[C@@H](Cc2ccc(O)cc2)C(=O)N2CCC[C@H]2C(=O)N[C@@H](Cc2c[nH]cn2)C(=O)N1)C(N)=O` [Compound R3102, [mXylyl(2,10)]Ac-Nvl-C-Phg-T-azaTrp-E-Y-P-H-C-Nvl-NH2] (Ac-[Nva]C[Phg]T[Trp(7-aza)]EYPHC[Nva]-NH2; linker 2-10 via mXylylene), for which the pIC50 under setting [1] was 6.01.
Turning to `CCC[C@H](NC(=O)[C@@H]1CSCc2cccc(c2)CSC[C@H](NC(=O)[C@H](CCC)NC(C)=O)C(=O)N[C@@H](c2ccccc2)C(=O)N[C@@H]([C@@H](C)O)C(=O)N[C@@H](Cc2c[nH]c3ncccc23)C(=O)N[C@@H](CCC(=O)O)C(=O)N[C@@H](Cc2ccc(O)cc2)C(=O)N(C)[C@@H](CO)C(=O)N[C@@H](Cc2c[nH]cn2)C(=O)NCC(=O)N1)C(N)=O` [Compound R3101, [mXylyl(2,10)]Ac-Nvl-C-Phg-T-azaTrp-E-Y-(N-Me)S-A-H-G-Nvl-NH2] (Ac-[Nva]C[Phg]T[Trp(7-aza)]EY[NMeS]HGC[Nva]-NH2; linker 2-11 via mXylylene), the pIC50 under setting [1] is < 4.00.
Consider `CC(=O)N[C@H]1CSCc2cccc(c2)CSC[C@@H](C(=O)N[C@H](C(=O)N[C@@H](Cc2ccc(O)cc2)C(=O)N[C@@H](Cc2c[nH]c3ccccc23)C(=O)N[C@@H](CCC(=O)O)C(=O)N[C@@H](Cc2ccccc2)C(N)=O)C(C)C)NC(=O)[C@H](Cc2ccccc2)NC(=O)[C@H](CCCNC(=N)N)NC(=O)[C@H](CCC(=O)O)NC(=O)[C@H](C(C)C)NC1=O` [Compound R3124, [mXylyl(1,6)]Ac-C-V-E-R-F-C-V-Y-W-E-F-NH2] (Ac-CVERFCVYWEF-NH2; linker 1-6 via mXylylene), for which the pIC50 reads like this: under setting [1], < 4.00; (variants of R3021 with internal amino acid deletions, inhibition of red blood cell lysis) < 4.00. Besides, the “ability to inhibit red blood cell lysis compared with the parent polypeptide (in words)” value (variants of R3021, R3002 or R3008) is “decrease in the ability”.
Consider `CCC[C@H](NC(=O)[C@@H]1CSCc2cccc(c2)CSC[C@H](NC(=O)[C@H](CCC)NC(C)=O)C(=O)N[C@@H](c2ccccc2)C(=O)N[C@@H]([C@@H](C)O)C(=O)N[C@@H](Cc2c[nH]c3ncccc23)C(=O)N[C@@H](CCC(=O)O)C(=O)N[C@@H](Cc2ccc(O)cc2)C(=O)N[C@@H](CO)C(=O)N[C@@H](C)C(=O)N1)C(N)=O` [Compound R3084, [mXylyl(2,10)]Ac-Nvl-C-Phg-T-azaTrp-E-Y-S-A-C-Nvl-NH2] (Ac-[Nva]C[Phg]T[Trp(7-aza)]EYSAC[Nva]-NH2; linker 2-10 via mXylylene), for which, under setting [1], the pIC50 is < 4.00.
On the same count and under the same terms, as for `CCC[C@H](NC(C)=O)C(=O)N[C@H]1CSCc2cccc(c2)CSC[C@@H](C(N)=O)NC(=O)[C@H](Cc2c[nH]cn2)NC(=O)[C@H](CO)N(C)C(=O)[C@H](Cc2ccc(O)cc2)NC(=O)[C@H](CCC(=O)O)NC(=O)[C@H](Cc2c[nH]c3ncccc23)NC(=O)[C@H]([C@@H](C)O)NC(=O)[C@H](c2ccccc2)NC1=O` [Compound R3013, [mXyly1(2,10)]Ac-Nvl-C-Phg-T-azaTrp-E-Y-(N-Me)S-H-C-NH2] (Ac-[Nva]C[Phg]T[Trp(7-aza)]EY[NMeS]HC-NH2; linker 2-10 via mXylylene), the figure is 6.46; as for `CCC[C@H](NC(C)=O)C(=O)N[C@H]1CSCc2cccc(c2)CSC[C@@H](C(=O)N2CCC[C@H]2C(=O)N[C@H](C(=O)N[C@H](C(N)=O)C(C)(C)C)c2ccccc2)NC(=O)[C@H](CCC(=O)O)NC(=O)[C@H](Cc2c[nH]c3ncccc23)NC(=O)[C@H](CCC(=O)O)NC(=O)[C@H](C(C)(C)C)NC(=O)[C@H](CC(N)=O)NC(=O)[C@H](CC(N)=O)NC(=O)[C@H](Cc2ccc(O)cc2)NC1=O` [Compound R3127, [mXylyl(2,10)]Ac-Nvl-C-Y-N-N-Tbg-E-azaTrp-E-C-P-Pha-Tbg-NH2] (Ac-[Nva]CYNN[Tle]E[Trp(7-aza)]ECP[Phg][Tle]-NH2; linker 2-10 via mXylylene), < 4.12.
As to `CC(=O)N[C@H]1CSCc2cccc(c2)CSC[C@@H](C(=O)N[C@@H](CC(=O)O)C(=O)N[C@H](C(=O)N[C@@H](Cc2ccc(O)cc2)C(=O)N[C@@H](Cc2c[nH]c3ccccc23)C(=O)N[C@@H](CCC(=O)O)C(=O)N[C@@H](Cc2ccccc2)C(N)=O)C(C)C)NC(=O)[C@H](Cc2ccccc2)NC(=O)[C@H](CCCNC(=N)N)NC(=O)[C@H](CCC(=O)O)NC(=O)[C@H](C(C)(C)C)NC1=O` [Compound R3146, [mXylyl(1,6)]Ac-C-Tbg-E-R-F-C-D-V-Y-W-E-F-NH2] (Ac-C[Tle]ERFCDVYWEF-NH2; linker 1-6 via mXylylene), under setting [1], the pIC50 is 6.97.
Same read-out and setting: under `CCC[C@H](NC(=O)[C@@H]1CSCc2cccc(c2)CSC[C@H](NC(=O)[C@H](CCC)NC(C)=O)C(=O)N[C@@H](c2ccccc2)C(=O)N[C@@H]([C@@H](C)O)C(=O)N[C@@H](Cc2c[nH]c3ncccc23)C(=O)N[C@@H](CCC(N)=O)C(=O)N[C@@H](Cc2ccc(O)cc2)C(=O)N(C)[C@@H](CO)C(=O)N[C@@H](C)C(=O)N1)C(N)=O` [Compound R3098, [mXylyl(2,10)]Ac-Nvl-C-Phg-T-azaTrp-Q-Y-(N-Me)S-A-C-Nvl-NH2] (Ac-[Nva]C[Phg]T[Trp(7-aza)]QY[NMeS]AC[Nva]-NH2; linker 2-10 via mXylylene) stands < 4.00.
As for `CCC[C@H](NC(=O)[C@@H]1CSCc2cccc(c2)CSC[C@H](NC(=O)[C@H](CCC)NC(C)=O)C(=O)N[C@@H](c2ccccc2)C(=O)N[C@@H]([C@@H](C)O)C(=O)N[C@@H](Cc2c[nH]c3ccc(F)cc23)C(=O)N[C@@H](CCC(=O)O)C(=O)N[C@@H](Cc2ccc(O)cc2)C(=O)N(C)[C@@H](CO)C(=O)N[C@@H](C)C(=O)N1)C(N)=O` [Compound R3088, [mXyly1(2,10)]Ac-Nvl-C-Phg-T-(5-F)W-E-Y-(N-Me)S-A-C-Nvl-NH2] (Ac-[Nva]C[Phg]T[Trp(5-F)]EY[NMeS]AC[Nva]-NH2; linker 2-10 via mXylylene), the negative-log IC50 (pIC50) was < 4.00 (7-azatryptophan variant polypeptides of R3008, inhibition of red blood cell lysis) and < 4.00 under setting [1].
With `CCC[C@H](NC(=O)[C@@H](NC(=O)[C@@H]1CCCN1C(=O)[C@@H]1CSCc2cccc(c2)CSC[C@H](NC(=O)[C@H](CCC)NC(C)=O)C(=O)N[C@@H](Cc2ccc(O)cc2)C(=O)N[C@@H](CCC(=O)O)C(=O)N[C@@H](CC(N)=O)C(=O)N[C@@H](C(C)(C)C)C(=O)N[C@@H](Cc2ccc(O)cc2)C(=O)N[C@@H](Cc2c[nH]c3ncccc23)C(=O)N[C@@H](CCC(=O)O)C(=O)N1)c1ccccc1)C(N)=O` [Compound R3018, [mXylyl(2,10)]Ac-Nvl-C-Y-E-N-Tbg-Y-azaTrp-E-C-P-Phg-Nvl-NH2] (Ac-[Nva]CYEN[Tle]Y[Trp(7-aza)]ECP[Phg][Nva]-NH2; linker 2-10 via mXylylene), the pIC50 under setting [1] was < 5.24.
Still for that read-out and setting: as for `CCC[C@H](NC(=O)[C@@H]1CCSCc2cccc(c2)CSCC[C@H](NC(=O)[C@H](CCC)NC(C)=O)C(=O)N[C@@H](c2ccccc2)C(=O)N[C@@H]([C@@H](C)O)C(=O)N[C@@H](Cc2c[nH]c3ncccc23)C(=O)N[C@@H](CCC(=O)O)C(=O)N[C@@H](Cc2ccc(O)cc2)C(=O)N(C)[C@@H](CO)C(=O)N[C@@H](Cc2c[nH]cn2)C(=O)N1)C(N)=O` [Compound R3107, [mXylyl(2,10)]Ac-Nvl-homoC-Phg-T-azaTrp-E-Y-(N-Me)S-H-homoC-Nvl-NH2] (Ac-[Nva][hCys][Phg]T[Trp(7-aza)]EY[NMeS]H[hCys][Nva]-NH2; linker 2-10 via mXylylene), the figure is < 4.12.

Values taken from patent US10208089B2, “Modulation of complement activity” (priority 2014, dated 2019).
